The values that follow come from PubChem BioAssay AID463136 (University of Pittsburgh Molecular Library Screening Center, 2010).

A short description of experiment [1]: blockers of dynein-driven microtubule transport – imaging, high-content imaging, dose response (AID 463136).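 Note: mouse mammary adenocarcinoma 3617.4 cells expressing GFP-tagged rat glucocorticoid receptor.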 The settings on record: HCS imaging, dynein-mediated cargo transport inhibition; inhibition at max concentration; at 50 µM; stronger effect = higher value.
For experiment [2], the system named is HCS imaging, dynein-mediated cargo transport inhibition. The description is as above.

What is called inhibition is the relative decrease from the control value, in per cent. One may read the IC50 as the concentration at which inhibition is half-maximal.

Results filed as inconclusive are left out. Activity calls are given as the source filed them. The rule behind the calls is not given here.

For the molecule `CC(C(Sc1ccccc1N)c1ccccc1)[N+](=O)[O-]` (stereo not given), the inhibition in experiment [1] was determined as 84.4%. In addition, in experiment [2], the IC50 was 24.7 µM.

As to `COc1cccc(N2C(=O)NC(=O)/C(=C/c3ccc([N+](=O)[O-])s3)C2=O)c1`, in experiment [1], the inhibition was 87.8%. In addition, the half-maximal inhibitory concentration (IC50) in experiment [2] was 10.7 µM.

Take `COc1ccc(-n2cccc2/C=C/[N+](=O)[O-])cc1`: the inhibition in experiment [1] came out at 14.4%. For the same molecule, in experiment [2], the IC50 was > 50 µM (inactive).

As for `CCOC(=O)c1c(-c2ccc(C)cc2)csc1NC(=O)/C(C#N)=C/c1ccc(O)c(OC)c1`, the inhibition in experiment [1] came to 4.51%. The IC50 in experiment [2] is > 50 µM (inactive).

On to `CC(C)CN1C(=O)/C(=C/c2c(N3CCc4ccccc4C3)nc3ccccn3c2=O)SC1=S`, for which the inhibition in experiment [1] stood at 131%. Besides, the IC50 in experiment [2] was 26 µM.

With `CCN1/C(=C/c2ccc3ccc(C)cc3[n+]2CC)Sc2ccccc21`, the inhibition in experiment [1] is 98.5%. In experiment [2], the IC50 is 2.13 µM.

Turning to `CCCCNC1C(CC)C(CCC)C(C#N)(C#N)C1(C#N)C#N` (stereo not given), in experiment [1], the inhibition came out at 75.2%. Besides, the half-maximal inhibitory concentration (IC50) in experiment [2] is 21.7 µM.

For `O=c1oc2c3c4c(cc2c(C(F)(F)F)c1CCN1CCOCC1)CCCN4CCC3`, the inhibition in experiment [1] came out at 99.3%. The IC50 in experiment [2] is 36.4 µM.

Take `COCCCNC(=O)c1ccc2c3c(onc13)-c1ccccc1C2=O`: the inhibition in experiment [1] amounted to 98.1%. The IC50 in experiment [2] is 16.7 µM.

For `O=C(NC1CCCCC1)C(c1cccnc1)N(C(=O)CCl)c1ccc(F)cc1` (stereo not given), the inhibition in experiment [1] was found to be 82.2%. In experiment [2], the concentration for half-maximal inhibition (IC50) is 12.7 µM.

Consider `Cc1cc(C)cc(Cn2ncc(Cl)c(Cl)c2=O)c1`, for which, in experiment [1], the inhibition came out at 63.9%. In experiment [2], the half-maximal inhibitory concentration (IC50) was 22.7 µM.

Consider `C=C1C(=O)C=C2CN(C(=O)c3ccccc3)[C@@](Cc3ccc(F)cc3)(C(=O)OC)[C@@H]12`, for which the inhibition in experiment [1] amounted to 80.3%. Besides, the concentration for half-maximal inhibition (IC50) in experiment [2] was 4 µM.

For `Cc1ccc(Sc2ccc(NC(=O)CCl)cc2)cc1C`, the inhibition in experiment [1] was found to be 16.3%. Moreover, the IC50 in experiment [2] is > 50 µM (inactive).

Take `O=C(c1ccccc1)c1ccccc1N1C(=O)C=CC1=O`: in experiment [1], the inhibition worked out at 7.43%. Further, the IC50 in experiment [2] was > 50 µM (inactive).

Regarding `Cc1ccc(CN=Cc2[nH]c3ccc(Br)c(Cl)c3c2O)cc1`, the inhibition in experiment [1] amounted to 99.2%. Moreover, the IC50 in experiment [2] is 5.14 µM.

As for `CC(=O)O[C@@H]1C[C@H]2C(C)(C)C(=O)C=C[C@]2(C)[C@H]2CC[C@@]3(C)[C@H](c4ccoc4)OC(=O)[C@H]4O[C@]43[C@@]21C`, the inhibition in experiment [1] stood at 77.9%. In experiment [2], the IC50 was 33.6 µM.

Consider `CC(=O)n1cc(N(C(=O)CCl)c2ccc([N+](=O)[O-])cc2)c2ccccc21`, for which the inhibition in experiment [1] stood at 25.2%. Besides, the IC50 in experiment [2] was > 50 µM (inactive).

In the case of `Cn1c(=O)c([N+](=O)[O-])c(Oc2ccccc2)c2ccccc21`, in experiment [1], the inhibition worked out at 15.3%. Also, in experiment [2], the IC50 was > 50 µM (inactive).

In the case of `N#Cc1c(Cl)c(Cl)c2nnc(-c3ccc(Br)cc3)n2c1Cl`, the inhibition in experiment [1] came to 40.1%. Moreover, the IC50 in experiment [2] is > 50 µM (inactive).

Take `O=c1c(Cl)c(Cl)cnn1Cc1ccccc1Cl`: in experiment [1], the inhibition worked out at 51.4%. Also, the half-inhibitory concentration (IC50) in experiment [2] is 23.8 µM.

Regarding `Cc1ccc(NC(=O)CN(C)C(=O)Cn2ncc(Cl)c(Cl)c2=O)cc1`, the inhibition in experiment [1] was 59%. Besides, the concentration for half-maximal inhibition (IC50) in experiment [2] was 7.77 µM.

Turning to `Cc1cc(C)cc(N=Cc2[nH]c3ccc(Br)c(Cl)c3c2O)c1`, the inhibition in experiment [1] came to 122%. For the same molecule, the 50% inhibitory concentration (IC50) in experiment [2] was 27.6 µM.

Regarding `C#CC(=O)N(c1ccc(OC)c(OC)c1)C(C(=O)NC1CCCC1)c1cccs1` (stereo not given), the inhibition in experiment [1] stood at 40.2%. In addition, in experiment [2], the IC50 is > 50 µM (inactive).

Turning to `CCOC(=O)c1c(NC(=O)/C=C/C(=O)O)sc(C)c1-c1ccc(Cl)cc1`, the inhibition in experiment [1] was determined as 93.3%. Further, the half-maximal inhibitory concentration (IC50) in experiment [2] is 9.7 µM.

For `O=C(Cn1ncc(Cl)c(Cl)c1=O)N1CCN(S(=O)(=O)c2ccc3ccccc3c2)CC1`, in experiment [1], the inhibition turned out to be 65.1%. Besides, in experiment [2], the IC50 was 24.1 µM.

For the molecule `Cc1ccccc1NC(=O)C(Cl)=C(Cl)Cl`, the inhibition in experiment [1] was 77.1%. Besides, the IC50 in experiment [2] was 13.4 µM.

With `COc1ccc(NC(=O)/C(Cl)=C(/Cl)S(=O)Cc2ccc(C)cc2)cn1` (stereo not given), the inhibition in experiment [1] was 54.7%. In addition, the IC50 in experiment [2] was 23.4 µM.

Take `O=[N+]([O-])c1ccc(Sc2nnnn2-c2ccccc2)nc1`: the inhibition in experiment [1] was determined as 81.6%. In addition, the IC50 in experiment [2] was 7.59 µM.

As to `O=C1CCCCc2sc(Br)c([N+](=O)[O-])c2N1`, the inhibition in experiment [1] was 66.9%. Also, the IC50 in experiment [2] is 7.06 µM.

Regarding `Cc1ccc2nc(Cl)c3nnnn3c2c1`, the inhibition in experiment [1] worked out at 64%. The concentration for half-maximal inhibition (IC50) in experiment [2] was 9.43 µM.

As to `O=C1C(Cl)=C(N2CCCCC2)C(=O)C(Cl)=C1c1cnc(N2CCCCC2)s1`, the inhibition in experiment [1] was determined as 94.6%. Besides, the concentration for half-maximal inhibition (IC50) in experiment [2] was 33.2 µM.

Regarding `Cc1ccc(-n2nnnc2CCl)cc1`, the inhibition in experiment [1] is 80%. Also, the half-maximal inhibitory concentration (IC50) in experiment [2] is 12.2 µM.

As for `O=C(CCl)N(c1ccc(Cl)cc1)c1c[nH]c2ccccc12`, the inhibition in experiment [1] was found to be 10.3%. The IC50 in experiment [2] is > 50 µM (inactive).

In the case of `CC(=O)N1/C(=C/c2ccc(N(C)C)cc2)C(=O)c2ccccc21`, the inhibition in experiment [1] turned out to be 78.9%. The 50% inhibitory concentration (IC50) in experiment [2] is 29.9 µM.

Turning to `O=C(/C=C/c1ccccc1)/C=C/c1ccccc1`, in experiment [1], the inhibition was determined as 45.9%. Further, in experiment [2], the IC50 was > 50 µM (inactive).
